# Laboratory results from patent US6673768B1, “Transgenic animal models for cardiac hypertrophy and methods of use thereof (treating)” (Board of Regents, The University of Texas System, priority 1997, dated 2004).
# Tests used:
# [1] = test system: neonatal rat cardiomyocytes; experiment: AngII- and PE-induced hypertrophy of primary cardiomyocytes (anti-α-actinin staining, cell size and sarcomeric assembly); type: cell-based; settings: 72 hr; AngII 10 nM or PE 10 μM
# Method: To visualize primary cardiomyocytes and their sarcomeric organization, anti-α-actinin mouse monoclonal antibody was used (Sigma). […] Cells were washed in 1×phosphate-buffered saline (PBS), fixed in 3.7% paraformaldehyde for 5 minutes, washed three times with 1×PBS and then pre-blocked in 1×PBS containing 2% horse serum, 2% BSA, and 0.1% non-ionic detergent NP40 for 30 minutes. Anti-α-actinin antibody was added at a dilution of 1:800 in fresh preblock solution and incubated for an additional 30 minutes. Subsequently, the cells were washed three times in 1×PBS with 0.1% NP40. Anti-mouse TRITC-conjugated secondary antibody was then added at a dilution of 1:400 for 30 minutes in pre-block solution and the cells were again washed three times in 1×PBS containing 0.1% NP40. Nuclear staining for DNA was performed with 0.5 μg/ml of bisbenzimide in PBS for 15 minutes followed by three rinses with PBS.
# [2] = test system: atrial natriuretic factor (ANF) mRNA; experiment: ANF mRNA dot blot in primary cardiomyocytes treated with AngII; type: cell-based, rat; settings: AngII exposure
# Method: A-F, Primary rat cardiocytes in serum-free medium were stimulated with AngII (10 nM) or PE (10 μm) for 72 hours. Cells were then fixed and stained with anti-α-actinin antibody to reveal sarcomeres and Hoechst stain to reveal nuclei. […] G, Total RNA was isolated from primary cardiocyte cultures treated with AngII in the presence or absence of CsA as in A and analyzed for expression of GAPDH and ANF transcripts by dot blot. H, Primary rat cardiomyocytes were transiently transfected with a luciferase reporter gene linked to 3 tandem copies of the NF-AT consensus binding site. Cells were then treated with AngII or PE in the presence or absence of CsA, as described above. Forty-eight hours later, cells were harvested and luciferase activity was determined.
# To determine whether changes in cardiomyocyte gene expression in response to AngII were also controlled by a calcineurin-dependent signaling pathway, the expression of ANF mRNA in cardiomyocytes treated with AngII was examined in the presence and absence of CsA by a dot blot assay. […] GAPDH mRNA was measured as a control.
# RNA analysis. Total RNA was collected and purified with Triazol reagent (Gibco BRL) as recommended. […]
substance,measurement,setting,value
"angiotensin II [AngII, humoral factor which induces the hypertrophic response in cardiomyocytes]",cardiomyocyte size and sarcomeric assembly after exposure to agonist,[1],dramatic increase in size and sarcomeric assembly
same,increase in ANF mRNA,[2],15 fold
